Data set [1] has as its system HT-29 cells transfected with the HLA-A(*)02.01 gene. In words: 51Cr release cytotoxicity test of CTL lines against colon carcinoma cells HT-29. The format is cell-based. As to conditions: HT-29 pretreated with 5-FU. Here is the method: (§1) The lymphocyte lines generated in vitro using TS/PP were capable of destroying the target cells derived from colon carcinoma (the HT-29 and SW-1463 cell lines).
HLA-A (*)02.01 expression was induced by gene transfection on the membrane of HT29 target cells before every experiment. Specific lysis was calculated as follows: […]

A further data set relates to SW-1463 cells. In words: 51Cr release cytotoxicity test of CTL lines against colon carcinoma cells SW-1463. Format: cell-based. As to conditions: SW-1463 pretreated with 5-FU.
Description: as §1

Data set [2] in a line: Anatomo-pathological study of organs (autoimmunity, toxicity). Format: in vivo, transgenic (HHD) mice. Particulars: lung, liver, spleen, kidney, brain, skin and mucosa.
Another data set deals with MDA-MB-231 cells. As to conditions: MDA-MB-231 pretreated with 5-FU.
Data set [3] concerns breast and colon carcinoma tumour cells. In words: Viability of target cells exposed to 5-FU (hemocytometric count). The format is cell-based, human. Particulars: sub-lethal doses for 48 hours. The text has this:
The viability of the target cells exposed to 5-FU was examined by means of a hemocytometric count after staining and was never less than 90%, thus excluding the possibility that the immunosensitisation was due to the large number of dead or already degenerating cells in the cytotoxicity assay.

In data set [4] the test system is MDA-MB-231, HT-29 and SW-1463 target cells. In words: Cytofluorimetric and immunoblotting analyses of target cells treated with 5-FU. The format is cell-based, human. As to conditions: data not shown.
Data set [5] has as its system murine TS in EL-4/HHD cells. In words: Cytofluorimetric test of TS expression in EL-4/HHD cells. The format is cell-based, mouse. As to conditions: sub-lethal dose, constitutive expression 35%.
The test system of data set [6] is EL-4/HHD autologous leukemic cells. In words: Tumour growth in HHD mice inoculated with EL-4/HHD cells. Format: in vivo, transgenic (HHD) mice. As to conditions: with weekly intraperitoneal 5-FU. How it is done:
The results are given as the mean value ±SD of the maximum diameter.
In this study, six groups of five mice received different immunological treatments with or without chemotherapeutic treatment with 5-FU. The mice in groups A and B were administered a control peptide derived from the mumps virus (100 μg per mouse); the mice in groups C and D were administered a cocktail of the TS-1, TS-2 and TS-3 peptides (100 μg per mouse); and the mice in groups E and F were administered the TS/PP peptide (100 μg per mouse).
The mice received the first peptide administration subcutaneously at time 0, with recalls in the third and sixth week. Two weeks after the last administration, all animals were subcutaneously inoculated with 2×10^6 EL-4/HHD cells.
In order to evaluate the possible interaction between TS and the 5-FU treatment for vaccination purposes, seven days after the tumour cells inoculation, the mice in groups B, D and F underwent a chemotherapeutic treatment based on weekly intraperitoneal administration of 5-FU ([…]).

Data set [7] has as its target T1, HLA-A(*)02.01 molecule on cells (human).
T1 construct: whole, on cells; Class I MHC molecule on cells; also called HLA-A2; HLA-A2.1
In words: T2 test (flow cytometry, HLA-A*02:01 on T2 cells).

Data set [8] deals with T1, HLA-A(*)02.01 molecule on cells. In words: T2 test (flow cytometry of HLA expression on T2 cells after exposure to the peptide).

Where a SMILES comes first, the peptide text is derived from it.

Description for MDA-MB-231 cells: Cytotoxic assays. The release of radioactive chrome (^51Cr) was assayed as described in previous studies [18].
Spontaneous release was determined in the plates to which 100 μl of medium was added without effector cells. The total radioactivity released was determined after treating the target with Triton x-100. HLA was blocked by using an anti-HLA-A2 antibody (A2.69, One Lambda, Inc., Chanoga Park, Calif., USA) or the anti-class I (pan A,B,C)-HLA antibody W6.32, which were incubated with the target cells for one hour before the cytotoxicity assay. The negative control was the UPC-10 monoclonal antibody.
The cytotoxicity tests carried out using the technique of ^51Cr release were performed using target cells coming from cell lines derived from breast carcinoma (MDA-MB-231) and colon carcinoma (HT-29 and SW-1463), before and after treatment with sub-lethal doses of 5-FU.

With `CC[C@H](C)[C@H](NC(=O)[C@H](CCSC)NC(=O)[C@@H](N)Cc1ccc(O)cc1)C(=O)N[C@@H](C)C(=O)N[C@@H](Cc1c[nH]cn1)C(=O)N[C@H](C(=O)N[C@H](C(=O)NCC(=O)N[C@@H](CC(C)C)C(=O)N[C@@H](Cc1ccccc1)C(=O)N[C@@H](CC(C)C)C(=O)N[C@@H](CC(=O)O)C(=O)N[C@@H](CO)C(=O)N[C@@H](CC(C)C)C(=O)NCC(=O)N[C@@H](Cc1ccccc1)C(=O)N[C@@H](CO)C(=O)N[C@H](C(=O)N[C@H](C(=O)N[C@@H](CC(C)C)C(=O)NCC(=O)N[C@@H](CC(=O)O)C(=O)N[C@@H](C)C(=O)N[C@@H](Cc1c[nH]cn1)C(=O)N[C@H](C(=O)N[C@@H](Cc1ccc(O)cc1)C(=O)N[C@@H](CC(C)C)C(=O)O)[C@@H](C)CC)[C@@H](C)O)[C@@H](C)O)[C@@H](C)O)[C@@H](C)CC` [TS/PP] (H-YMIAHITGLFLDSLGFSTTLGDAHIYL-OH; N-terminus and C-terminus assumed), the “Lysis after target cell pre-treatment with sub-lethal 5-FU doses” value (in [1]; in the data set on SW-1463 cells) was “significantly increased” in each case. In addition, the “Degeneration, autoimmunity or toxicity” value in data set [2] was “do not indicate any autoimmunity or toxicity phenomena”. Further, the “Lytic activity after target cell pre-treatment with sub-lethal 5-FU doses” value in the data set with MDA-MB-231 cells was “significantly increased”.

Take `O=c1[nH]cc(F)c(=O)[nH]1` [5-FU, 5-fluorouracil]: the “Viability of the target cells” value in data set [3] is listed as no less than 90%. Further, the TS expression result in data set [4] (MDA-MB-231, HT-29, SW-1463) is “significant increase”. The “Class I HLA expression” value in data set [4] was “did not induce any change”. Further, in data set [5], the “Expression of murine TS” value is on record as 55-70%. Further, in data set [6], the Neoplastic growth result is listed as “did not change neoplastic growth in any way”.

Consider FLDSLGFST (Synthetic 9-mer) [TS-3 peptide (FLDSLGFST)], for which, in [7], the binding result was “binds”.

Turning to YMIAHITGLFLDSLGFSTTLGDAHIYL (also called 28-amer peptide) [TS/PP poly-epitope peptide (YMIAHITGLFLDSLGFSTTLGDAHIYL)], the binding result in data set [8] is “no binding”.

Take TLGDAHIYL (Synthetic 9-mer) [TS-1 peptide (TLGDAHIYL)]: the binding result in data set [7] was “binds”.

On to YMIAHITGL (Synthetic 9-mer) [TS-2 peptide (YMIAHITGL)], for which, in [7], the binding result was “binds”.

These data come from patent US8344100B2, “Poly-epitope peptide derived from thymidylate synthase having immunological and anti-tumour activity” (Universitá degli Studi di Siena, priority 2005, dated 2013).
